Experimental data reported in patent US20260091026A1, “METHODS OF TREATING INFLAMMATORY DISEASES” (INTERLINE THERAPEUTICS, INC., priority 2023, published 2026).

Tests used:
RIPK2 (KD)/XIAP (BIR2) = molecular target: T1, RIPK2 (KD)/XIAP (BIR2) (Homo sapiens, UniProt O43353); experiment: RIPK2-XIAP binding competition PPI assay (TR-FRET); conditions: for Emax: 50 nM of GSK583 = -100% activity, read-out: PPI Amax; for IC50: GST-RIPK2 / His-XIAP (BIR2)-avi, 120 min at 23° C.
T1 construct: made in house; host or cells: baculovirus-infected Sf9 cells
Method in brief: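 After 2 h at 23 °C, complex formation was read as the 665/520 nm emission ratio (337 nm excitation), scaled between uninhibited reaction and 50 nM GSK583. The mix held 1 nM human RIPK2 kinase fragment-GST, 25 nM His-tagged XIAP BIR2 and Tb/XL665 antibodies in pH 7.5 Tris buffer containing vanadate and glycerophosphate.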

[1] = system: THP1-Dual cells, NF-κB pathway (SEAP); experiment: THP-1 Dual cell SEAP assay (L18-MDP stimulated); assay type: cell-based; conditions: Homo sapiens, 10 ng/mL L18-MDP, 20-24 h, SEAP readout, read-out: IFNγ THP1 IC50
Method in brief: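 IC50 values come from non-linear fits of % inhibition of SEAP, measured as QUANTI-Blue optical density (620-655 nm, 2 h) in media-blanked supernatants. These were taken from THP1-Dual cells treated with compound for 30 min before overnight exposure to 10 ng/mL L18-MDP final at 37 °C.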

T1 sequence (O43353 1-310): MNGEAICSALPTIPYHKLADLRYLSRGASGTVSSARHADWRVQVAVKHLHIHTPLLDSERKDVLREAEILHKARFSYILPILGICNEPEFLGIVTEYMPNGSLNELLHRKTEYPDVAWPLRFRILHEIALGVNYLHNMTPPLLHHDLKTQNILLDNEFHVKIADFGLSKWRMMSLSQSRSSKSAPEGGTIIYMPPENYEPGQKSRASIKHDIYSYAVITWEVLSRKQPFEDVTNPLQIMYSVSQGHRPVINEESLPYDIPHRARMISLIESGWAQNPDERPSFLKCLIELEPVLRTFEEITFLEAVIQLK

Compound | Emax (RIPK2 (KD)/XIAP (BIR2)) [%] | IC50 (RIPK2 (KD)/XIAP (BIR2)) [nM] | IC50 [1] [nM]
C[C@@H](NC(=O)c1cc(-c2cnc3cc(OCCO)c(S(=O)(=O)C(C)(C)C)cn23)nn1C1COC1)c1ncccc1F [Example 139, (R)-3-(6-(tert-butylsulfonyl)-7-(2-hydroxyethoxy)imidazo[1,2-a]pyridin-3-yl)-N-(1-(3-fluoropyridin-2-yl)ethyl)-1-(oxetan-3-yl)-1H-pyrazole-5-carboxamide] | ≥ 80 | 10 to 100 | 100 to 500
COc1cc2ncc(-c3cc(C(=O)N[C@H](C)c4ncccc4F)n(C4CN(C(=O)OC(C)(C)C)C4)n3)n2cc1S(=O)(=O)C(C)(C)C [Example 140, tert-butyl (R)-3-(3-(6-(tert-butylsulfonyl)-7-methoxyimidazo[1,2-a]pyridin-3-yl)-5-((1-(3-fluoropyridin-2-yl)ethyl)carbamoyl)-1H-pyrazol-1-yl)azetidine-1-carboxylate] | ≥ 80 | 10 to 100 | 500 to 2500
COc1cc2ncc(-c3cc(C(=O)N[C@H](C)c4ncccc4F)n(C4CNC4)n3)n2cc1S(=O)(=O)C(C)(C)C [Example 141, (R)-1-(azetidin-3-yl)-3-(6-(tert-butylsulfonyl)-7-methoxyimidazo[1,2-a]pyridin-3-yl)-N-(1-(3-fluoropyridin-2-yl)ethyl)-1H-pyrazole-5-carboxamide] | ≥ 80 | 100 to 1000 | > 2500
COc1cc2ncc(-c3cc(C(=O)N[C@H](C)c4ccccn4)n(CCO)n3)n2cc1S(=O)(=O)C(C)(C)C [Example 142, (R)-3-(6-(tert-butylsulfonyl)-7-methoxyimidazo[1,2-a]pyridin-3-yl)-1-(2-hydroxyethyl)-N-(1-(pyridin-2-yl)ethyl)-1H-pyrazole-5-carboxamide] | ≥ 80 | 10 to 100 | 500 to 2500
COc1cc2ncc(-c3cc(C(=O)N[C@H](C)c4ncccc4F)n(CCO)n3)n2cc1S(=O)(=O)C(C)(C)C [Example 143, (R)-3-(6-(tert-butylsulfonyl)-7-methoxyimidazo[1,2-a]pyridin-3-yl)-N-(1-(3-fluoropyridin-2-yl)ethyl)-1-(2-hydroxyethyl)-1H-pyrazole-5-carboxamide] | ≥ 80 | 10 to 100 | 100 to 500
COc1cc2ncc(-c3cc(C(=O)N[C@H](C)c4ccccn4)n(CCCO)n3)n2cc1S(=O)(=O)C(C)(C)C [Example 144, (R)-3-(6-(tert-butylsulfonyl)-7-methoxyimidazo[1,2-a]pyridin-3-yl)-1-(3-hydroxypropyl)-N-(1-(pyridin-2-yl)ethyl)-1H-pyrazole-5-carboxamide] | ≥ 80 | 10 to 100 | 100 to 500
COc1cc2ncc(-c3cc(C(=O)N[C@H](C)c4ncccc4F)n(CCCO)n3)n2cc1S(=O)(=O)C(C)(C)C [Example 145, (R)-3-(6-(tert-butylsulfonyl)-7-methoxyimidazo[1,2-a]pyridin-3-yl)-N-(1-(3-fluoropyridin-2-yl)ethyl)-1-(3-hydroxypropyl)-1H-pyrazole-5-carboxamide] | ≥ 80 | 10 to 100 | < 100
COc1cc2ncc(-c3cc(C(=O)N[C@H](C)c4ccccn4)[nH]n3)n2cc1S(=O)(=O)C(C)(C)C [Example 146, (R)-3-(6-(tert-butylsulfonyl)-7-methoxyimidazo[1,2-a]pyridin-3-yl)-N-(1-(pyridin-2-yl)ethyl)-1H-pyrazole-5-carboxamide] | ≥ 80 | 10 to 100 | 100 to 500
COc1cc2ncc(-c3cc(C(=O)N[C@H](C)c4ncccc4F)n(C4CN(C)C4)n3)n2cc1S(=O)(=O)C(C)(C)C [Example 147, (R)-3-(6-(tert-butylsulfonyl)-7-methoxyimidazo[1,2-a]pyridin-3-yl)-N-(1-(3-fluoropyridin-2-yl)ethyl)-1-(1-methylazetidin-3-yl)-1H-pyrazole-5-carboxamide] | ≥ 80 | 100 to 1000 | 500 to 2500
COc1cc2ncc(-n3cc(C(=O)NCc4ccccc4)c(C)n3)n2cc1S(=O)(=O)C(C)(C)C [Example 148, N-benzyl-1-(6-(tert-butylsulfonyl)-7-methoxyimidazo[1,2-a]pyridin-3-yl)-3-methyl-1H-pyrazole-4-carboxamide] | ≥ 80 | 100 to 1000 | > 2500
COc1cc2ncc(-c3cc(NC(=O)OCc4ccccc4)n(C)n3)n2cc1S(=O)(=O)C(C)(C)C [Example 149] | ≥ 80 | 10 to 100 | 100 to 500
COc1cc2ncc(-c3cc(NC(=O)O[C@@H](C)c4ccccc4)n(C)n3)n2cc1S(=O)(=O)C(C)(C)C [Example 150, (S)-1-phenylethyl (3-(6-(tert-butylsulfonyl)-7-methoxyimidazo[1,2-a]pyridin-3-yl)-1-methyl-1H-pyrazol-5-yl)carbamate] | ≥ 80 | 100 to 1000 | 500 to 2500
COc1cc2ncc(-c3cc(NC(=O)O[C@H](C)c4ccccc4)n(C)n3)n2cc1S(=O)(=O)C(C)(C)C [Example 151, (R)-1-phenylethyl (3-(6-(tert-butylsulfonyl)-7-methoxyimidazo[1,2-a]pyridin-3-yl)-1-methyl-1H-pyrazol-5-yl)carbamate] | ≥ 80 | < 10 | < 100
C[C@H](CO)COc1cc2ncc(-c3cc(NC(=O)Cc4ccccc4Cl)n(C)n3)n2cc1S(=O)(=O)C(C)(C)C [Example 187, (R)-N-(3-(6-(tert-butylsulfonyl)-7-(3-hydroxy-2-methylpropoxy)imidazo [1,2-a]pyridin-3-yl)-1-methyl-1H-pyrazol-5-yl)-2-(2-chlorophenyl)acetamide] | ≥ 80 | < 10 | 100 to 500
C[C@@H](CO)COc1cc2ncc(-c3cc(NC(=O)Cc4ccccc4Cl)n(C)n3)n2cc1S(=O)(=O)C(C)(C)C [Example 188, (S)-N-(3-(6-(tert-butylsulfonyl)-7-(3-hydroxy-2-methylpropoxy)imidazo [1,2-a]pyridin-3-yl)-1-methyl-1H-pyrazol-5-yl)-2-(2-chlorophenyl) acetamide] | ≥ 80 | < 10 | 100 to 500
CNc1nccn2c(-c3cc(C(=O)NCc4ccccc4)n(C)n3)cnc12 [Example 189, N-benzyl-1-methyl-3-(8-(methylamino)imidazo[1,2-a]pyrazin-3-yl)-1H-pyrazole-5-carboxamide] | 55 to 80 | > 1000 | > 2500
CNc1nccn2c(-c3cc(C(=O)N[C@H](C)c4ccccc4)n(C)n3)cnc12 [Example 190, (R)-1-methyl-3-(8-(methylamino)imidazo [1,2-a]pyrazin-3-yl)-N-(1-phenylethyl)-1H-pyrazole-5-carboxamide] | 30 to 55 | > 1000 | > 2500
COc1cc2ncnc(-c3cc(C(=O)NCc4ccccc4)n(C)n3)c2cc1S(=O)(=O)C(C)(C)C [Example 191, N-benzyl-3-(6-(tert-butylsulfonyl)-7-methoxyquinazolin-4-yl)-1-methyl-1H-pyrazole-5-carboxamide] | ≥ 80 | 100 to 1000 | > 2500
COc1cc2ncnc(-c3cc(C(=O)N[C@H](C)c4ccccc4)n(C)n3)c2cc1S(=O)(=O)C(C)(C)C [Example 192, (R)-3-(6-(tert-butylsulfonyl)-7-methoxyquinazolin-4-yl)-1-methyl-N-(1-phenylethyl)-1H-pyrazole-5-carboxamide] | ≥ 80 | 10 to 100 | 500 to 2500
